Test results: patent publication US20130237556A1, “BERBERINE ALKALOID AS A MEDICAMENT FOR PREVENTION AND TREATMENT OF NEURAL DISEASE” (HONG KONG BAPTIST UNIVERSITY, priority 2012, published 2013)
Values joined by “and” are separate entries in the source; they are usually repeats but may differ in a detail not shown here. Equal values may be shown once. “Also recorded” adds a separate entry of the source.

What was measured:
[1] = tested on: N2a-SwedAPP cells; assay: Western blot of N2a-SwedAPP cell lysates (p-Akt, pGSK3, CTFs, p-APP, PHF-1); format: cell-based, mouse
Protocol: (§1) N2a-SweAPP cells are mouse neuroblastoma N2a cells stably transfected with human Swedish mutant APP695, and were gifts from Dr. Gopal Thinakaran (University of Chicago, Chicago Ill.). Cells were maintained in Dulbecco's modified Eagle's medium (DMEM) (Invitrogen, Carlsbad, Calif.) supplemented with 10% fetal bovine serum, penicillin and streptomycin and 200 μg/mL G418 (Invitrogen). Cells were cultured either in multiwell dishes or on 60 mm tissue culture plates in DMEM 10% with FBS Cell cultures were incubated at 37° C. in a humid 5% CO2/ 95% air environment. After cells were grown close to confluence, they were treated with/without different concentrations of BBR in DMEM (1% FBS) for 24 h. […] For the concentration-dependent treatment, cells were treated with serial dilutions of BBR ranging from 0-20 μM for 2 or 12 h prior to lysis with ice-cold RIPA buffer (20 mM Tris, pH 7.4, 150 mM NaCl, 1% triton-X, 0.5% sodium deoxycholate, EDTA) containing protease inhibitor cocktails (EMD chemicals, Philadelphia, Pa.) to find the optimal range of BBR. For the time-dependent application, cells were treated with a 20 μM concentration of BBR and incubated at time points ranging from 0-180 min prior to lysis. For immunofluorescent staining, N2a-SwedAPP cells were seeded on glass cover slips at a density of 0.5×10^5 viable cells per well in a 24-well plate. Cells on cover slips were treated with BBR (20 μM) for 3 h with or without pretreatment of LY294002 (Cell signaling Technology, Danvers, Mass.), a specific inhibitor of Akt upstream kinase phosphatidylinositol 3-kinase (PI3K) (Vlahos et al., 1994) in serum-free DMEM for 1 h, whereas control cells were incubated with vehicle (DMSO) alone in DMEM.
The brain SDS fraction as described above was used to detect the full-length APP (Fl-APP), APP C-terminal fragments (CTFs: CTF-β and CTF-α), p-APP, p-CTFs, BACE-1, ADAM-10, neprilysin, insulin-degrading enzyme (IDE), GSK3α/β, p-cyclin-dependent kinase 5 (p-CDKS), p-stress-activated protein kinase/Jun-amino-terminal kinase (p-JNK), phospho-tau epitopes and β-actin in Western blot analysis. For cell homogenates preparation, cells were washed with phosphate-buffered saline (PBS) and solubilized in ice-cold RIPA buffer. Equal amounts of protein (30 μg) were subjected to 10 and 15% SDS polyacrylamide gels, transferred onto PVDF membranes (GE Healthcare, Piscataway, N.J.) at 300 mA for 2 h, and then blocked with 5% fat-free milk in Tris-buffered saline and 0.1% Tween-20 for 2 h at room temperature. The membrane was then incubated with primary antibodies overnight at 4C. The antibodies used in Western blots were β-actin (mouse, 1:5000; Santa Cruz, Calif.), p-APP (rabbit, 1:1000; Cell signaling Technology), BACE-1 (rabbit, 1:1000; Abcam, Cambridge, Mass.), ADAM-10 (rabbit, 1:2000; EMD chemicals), insulin-degrading enzyme (IDE) (rabbit, 1:1000, Abcam), neprilysin (rabbit, 1:1000 Millipore, Temecula, Calif.), Akt (rabbit, 1:1000; Cell Signaling Technology), p-Akt (rabbit, 1:1000; Cell signaling), glycogen synthase kinase 3α/β(GSK-3α/β)[Ser21/9] (rabbit, 1:1000; Cell signaling Technology), pGSK-3α/βSer21/9] (rabbit, 1:1000; Cell signaling Technology), Cdk5[Y15] (rabbit, 1:1000; Abcam), JNK (Thr183/Tyr185) (rabbit, 1:1000, Cell signaling Technology), the C-terminal anti-APP antibody CT15 for full-length APP and CTFβ and CTFα (rabbit, 1:2000, and three mouse monoclonal antibodies against phosphorylated tau: AT8 (recognizes phosphorylated tau at Ser-202 and Thr-205, 1:1000, Pierce, Rockford, Ill.), AT180 (recognizes phosphorylated tau at Thr-231 and Ser-235, 1:1000, Pierce) and PHF-1 (recognizes -phosphorylated tau at […] and Ser 404, 1:2000, and one mouse monoclonal against dephosphorylaed tau: Tau-1 (recognizes the tau when serines 195, 198, 199, and 202 are dephosphorylated, 1:2000,). Mouse monoclonal Tau-5 used to recognize total tau (mouse 1:2000). Blots were washed in and incubated with corresponding horseradish peroxidase-conjugated secondary antibody. […]

[2] = tested on: TgCRND8 mice; assay: Aβ plaque burden by 4G8 immunostaining in cortex and hippocampus; format: in vivo, mouse
[3] = tested on: TgCRND8 mice; assay: Western blot of brain homogenates (APP processing, tau phosphorylation, Akt/GSK3); format: in vivo, mouse
[4] = tested on: TgCRND8 mice; assay: Aβ1-40 and Aβ1-42 sandwich ELISA in SDS and formic acid brain extracts; format: in vivo, mouse
[5] = tested on: N2a-SwedAPP cells; assay: MTT toxicity assay; format: cell-based, mouse; conditions: up to 25 μM BBR, 24 h
Protocol: as §1, with “Cells on cover slips were treated with BBR (20 μM) for 3 h with or without pretreatment of LY294002 (Cell signaling Technology, Danvers, Mass.), a specific inhibitor of Akt upstream kinase phosphatidylinositol 3-kinase (PI3K) (Vlahos et al., 1994) in serum-free DMEM for 1 h, whereas control cells were incubated with vehicle (DMSO) alone in DMEM.” left out

[6] = target: Aβ1-42 fibril formation (Homo sapiens, UniProt P05067); assay: Inhibition of Aβ1-42 fibril formation in vitro; format: biochemical
[7] = BBR 25 and 100 mg/Kg/d vs vehicle
[8] = BBR- vs vehicle-treated TgCRND8
[9] = BBR-treated vs vehicle-treated TgCRND8, dose not stated
[10] = low dose BBR, SDS and FA fractions

Aβ1-42 fibril formation, sequence (P05067 672-713 limits assumed): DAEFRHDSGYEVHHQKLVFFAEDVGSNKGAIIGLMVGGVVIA

With `COc1ccc2cc3[n+](cc2c1OC)CCc1cc2c(cc1-3)OCO2` [BBR, 5,6-dihydro-9,10-dimethoxybenzo[g]-1,3-benzodioxolo[5,6-a]quinolizinium] the “reduction in the level of CTFs” value ([1]; 5 μM BBR, 12 hours) was 24%, the “decrease of p-APP (Thr668) level” value ([1]; 10 μM BBR, 12 hours) was 50% and the “level of tau bound to PHF-1 decreased to % compared to control” value ([1]; 10 μM BBR, 12 hours) was 30%. The “amount of phosphorylated GSK3, time course” value ([1]; 20 μM BBR, 0-180 min, remains higher than control beyond 3 h) was “increases during the first 30 min”, the “decrease of p-APP (Thr668) level” value ([1]; 20 μM BBR, 12 hours) was 75% and the “level of tau bound to PHF-1 decreased to % compared to control” value ([1]; 20 μM BBR, 12 hours) was 50%. For the same compound, the “reduction of CTFs level (of basal level), maximal” value ([1]; 20 μM BBR, 12 hours) was 55%, the “phosphorylation of Akt at Ser 473 and GSK3 at Ser 21 and Ser9, concentration-dependent” value ([1]; BBR 10 and 20 μM, 3 hours) was “significant increases” and the “cellular total Akt and GSK3β levels” value ([1]; BBR treatment) was “does not significantly affect”. For the same compound, the “decrease in plaque burden compared with control animals (4G8)” value ([2]; 25 mg/Kg/d) was 60% and 61%, the “reduction in amyloid burden observed in this study” value ([2]; range over BBR doses (discussion)) was 43-63% and the “CTF-α and β levels in brain homogenates” value ([3]; 25 mg/Kg/day) was “significantly reduces”. The “ADAM-10 level in brain homogenates” value [3, 7] was “no significant difference; also recorded: no effect”, the “BACE-1 level in brain homogenates” value [3, 7] was “no effect; also recorded: no significant difference” and the “full length APP level in brain homogenates” value [3, 7] was “no effect; also recorded: no significant difference”. The “total GSK3α/β and total Akt” value ([3]; BBR treatment) was “unaltered”, the “IDE level in brain homogenates” value ([3]; BBR vs vehicle) was “no significant difference; also recorded: does not affect” and the “neprilysin level in brain homogenates” value ([3]; BBR vs vehicle) was “no significant difference; also recorded: does not affect”. For the same compound, the “p-Cdk5 (Y15) level” value [3, 8] was “no significant differences”, the “p-JNK (Thr183/Tyr185) level” value [3, 8] was “no significant differences” and the “phosphorylated Akt (p-Akt) level normalized to total Akt” value [3, 8] was “significantly high”. For the same compound, the “tau-1 immunoreactivity (dephosphorylated tau)” value ([3]; BBR-treated TgCRND8) was “significant increase”, the “enhancement in phosphorylated GSK3α and β at Ser 21 and 9” value ([3]; BBR-treated vs vehicle-treated TgCRND8) was 50% and the “decrease of phosphorylated tau at AT8 phosphoepitope” value [3, 9] was 30%. For the same compound, the “decrease of phosphorylated tau at AT180 phosphoepitope” value [3, 9] was 42%, the “decrease of phosphorylated tau at PHF-1 phosphoepitope” value [3, 9] was 26% and the total tau levels ([3]; between the groups) was “No significant difference”. The “decrease in the p-APP and p-CTFs” value ([3]; high dose group vs vehicle) was 27-28%, the “decrease in the p-APP and p-CTFs” value ([3]; low dose group vs vehicle) was 46-50% and the “diminution of Aβ1-40, SDS-soluble fraction” value ([4]; 25 mg/Kg/d) was 44%. The “reduction of Aβ1-40, formic acid extractable fraction” value ([4]; 25 mg/Kg/d) was 49%, the “reduction of Aβ1-42, formic acid extractable fraction” value ([4]; 25 mg/Kg/d) was 44% and the “diminution of Aβ1-40, SDS-soluble fraction” value ([4]; 100 mg/Kg/d) was 32%. For the same compound, the “reduction of Aβ1-40, formic acid extractable fraction” value ([4]; 100 mg/Kg/d) was 54%, the “reduction of Aβ1-42, formic acid extractable fraction” value ([4]; 100 mg/Kg/d) was 39% and the “Aβ1-42, SDS-soluble fraction” value ([4]; BBR treatments (25 and 100 mg/Kg/d)) was “slight reduction”. For the same compound, the “reduction of total extracted Aβ40” value [4, 10] was 44-49%, the “reduction of total extracted Aβ42” value [4, 10] was 22-43% and the “cell viability (MTT)” value [5] was “did not affect cell viability”. For the same compound, the IC50 ([6]; in vitro) was 23.5 µM and the “effective in vitro concentration (approximately 20 μM) relative to brain levels” value ([6]; printed as 'times less than those found in the brain') was 23 times.
